Counter-ions that a name gives are not always drawn.
Key:
[1] = system: rats with experimental heart failure; settings: rat, in vivo; cited from earlier work
[2] = system: rat model of chronic kidney disease; settings: cited from earlier work; for plasma aldosterone: FAD286: 4 weeks of treatment, spironolactone: 4 and 8 weeks of treatment; for renal effects (albuminuria, azotemia, renovascular hypertrophy, glomerular injury, PAI-1 and osteopontin mRNA, tubulointerstitial fibrosis): angiotensin II and high salt treatment; for angiotensin II and salt-stimulated PAI-1 mRNA expression in the aorta and the heart: rat, in vivo
CYP11B2 = CYP11B2 (Homo sapiens, UniProt P19099); settings: patients with primary aldosteronism, cited from earlier work
human CYP11B2 = target: T1, human CYP11B2 (Homo sapiens, UniProt P19099); test: G-402 cellular enzyme assay, human CYP11B2 (aldosterone release, HTRF); assay type: cell-based; settings: G-402 cells expressing human CYP11B2; 1 μM Deoxycorticosterone
T1 construct: expressed in transfected cells
T1 sequence (P19099 25-503): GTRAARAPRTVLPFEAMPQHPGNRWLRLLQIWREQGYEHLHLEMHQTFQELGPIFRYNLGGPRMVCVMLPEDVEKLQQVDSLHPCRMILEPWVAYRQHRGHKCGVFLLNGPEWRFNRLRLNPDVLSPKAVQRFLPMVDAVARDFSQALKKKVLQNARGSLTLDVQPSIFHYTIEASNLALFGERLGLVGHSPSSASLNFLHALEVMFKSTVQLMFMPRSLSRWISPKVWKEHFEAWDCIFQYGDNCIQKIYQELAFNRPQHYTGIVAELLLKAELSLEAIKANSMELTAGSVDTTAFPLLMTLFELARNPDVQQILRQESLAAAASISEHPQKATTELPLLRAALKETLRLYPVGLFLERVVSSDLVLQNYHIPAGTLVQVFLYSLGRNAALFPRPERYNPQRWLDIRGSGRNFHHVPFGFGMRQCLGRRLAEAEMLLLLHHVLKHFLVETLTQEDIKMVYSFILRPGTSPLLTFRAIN
Method in brief: (§1)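 G-402 cells stably expressing human CYP11B2 or CYP11B1, in DMEM/F12 with 2.5% charcoal-treated FCS, were incubated 16 h with compound plus 1 μM deoxycorticosterone (CYP11B2) or 1 μM deoxycortisol (CYP11B1). Aldosterone or cortisol in the supernatant measured by HTRF; EC50 from a 4-parameter MMF fit.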

human CYP11B1 = target: T2, human CYP11B1 (Homo sapiens, UniProt P15538); test: G-402 cellular enzyme assay, human CYP11B1 (cortisol release, HTRF); assay type: cell-based; settings: G-402 cells expressing human CYP11B1; 1 μM Deoxycortisol
T2 construct: expressed in transfected cells
T2 sequence (P15538 25-503): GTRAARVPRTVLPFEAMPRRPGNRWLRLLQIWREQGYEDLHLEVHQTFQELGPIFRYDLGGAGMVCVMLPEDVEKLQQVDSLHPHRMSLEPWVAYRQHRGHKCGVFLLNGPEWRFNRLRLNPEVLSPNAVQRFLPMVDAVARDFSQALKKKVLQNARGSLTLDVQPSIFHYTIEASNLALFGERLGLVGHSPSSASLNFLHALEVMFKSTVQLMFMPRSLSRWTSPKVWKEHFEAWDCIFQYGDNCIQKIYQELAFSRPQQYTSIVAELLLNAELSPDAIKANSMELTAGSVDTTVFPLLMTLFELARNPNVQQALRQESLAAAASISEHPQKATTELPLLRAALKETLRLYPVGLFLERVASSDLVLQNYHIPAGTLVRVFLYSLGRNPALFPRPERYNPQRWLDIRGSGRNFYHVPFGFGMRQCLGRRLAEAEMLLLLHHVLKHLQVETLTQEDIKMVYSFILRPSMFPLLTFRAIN
Method in brief: as §1

Structure (SMILES) | EC50 (human CYP11B2) | EC50 (human CYP11B1) | also measured
N#Cc1ccc(C2CCCc3cncn32)cc1 (stereo not drawn) [FAD286] | – | – | blood pressure and cardiovascular function and structure [1]: improved; kidney function and morphology [1]: improve; plasma aldosterone [2]: reduced; renal effects (albuminuria, azotemia, renovascular hypertrophy, glomerular injury, PAI-1 and osteopontin mRNA, tubulointerstitial fibrosis) [2]: prevented these renal effects; angiotensin II and salt-stimulated PAI-1 mRNA expression in the aorta and the heart [2]: not
N#Cc1ccc([C@H]2CCc3cncn32)c(F)c1 [LCI699] | – | – | circulating aldosterone levels (CYP11B2; oral): significantly lower; blood pressure (CYP11B2): mildly decreased; hypokalemia (CYP11B2): corrected; selectivity (effects on the glucocorticoid axis) (CYP11B2): poor selectivity
CC(=O)S[C@@H]1CC2=CC(=O)CC[C@]2(C)[C@H]2CC[C@@]3(C)[C@@H](CC[C@@]34CCC(=O)O4)[C@H]12 [spironolactone] | – | – | plasma aldosterone [2]: increased; renal effects (albuminuria, azotemia, renovascular hypertrophy, glomerular injury, PAI-1 and osteopontin mRNA, tubulointerstitial fibrosis) [2]: prevented these renal effects; angiotensin II and salt-stimulated PAI-1 mRNA expression in the aorta and the heart [2]: enhanced
COc1nc(Cl)cnc1C(=O)NCc1cncc(-c2ccc3c(c2)CCC(=O)N3C)c1 [Example 134] | 3 nM | 94 nM | –
CN1C(=O)CCc2cc(-c3cncc(CNC(=O)c4nc(Cl)ccc4Cl)c3)ccc21 [Example 116] | 3 nM | 81 nM | –
CN1C(=O)CCc2cc(-c3cncc(CNS(=O)(=O)c4ccc(Cl)nc4)c3)ccc21 [Example 158, 6-Chloro-pyridine-3-sulfonic acid [5-(1-methyl-2-oxo-1,2,3,4-tetrahydro-quinolin-6-yl)-pyridin-3-ylmethyl]-amide] | 239 nM | 6430 nM | –
O=C(NCc1cncc(-c2cc3c4c(c2)CCN4C(=O)CC3)c1)c1ncccc1Cl [Example 236, 3-Chloro-pyridine-2-carboxylic acid [5-(4-oxo-1,2,5,6-tetrahydro-4H-pyrrolo[3,2,1-ij]quinolin-8-yl)-pyridin-3-ylmethyl]-amide] | 3 nM | 77 nM | –
CN1C(=O)CCc2cc(-c3cncc(N4CCC[C@@H]4CO)c3)ccc21 [Example 6, 6-[5-((R)-2-Hydroxymethyl-pyrrolidin-1-yl)-pyridin-3-yl]-1-methyl-3,4-dihydro-1H-quinolin-2-one] | 98 nM | 3340 nM | –
CCS(=O)(=O)NCc1cncc(-c2ccc3c(n2)CCC(=O)N3C)c1 [Example 32, Ethanesulfonic acid [5-(5-methyl-6-oxo-5,6,7,8-tetrahydro-[1,5]naphthyridin-2-yl)-pyridin-3-ylmethyl]-amide] | 1290 nM | > 10000 nM | –
O=C1CCc2cc(-c3cncc(CNC(=O)c4ncccc4Cl)c3)ccc2N1 [Example 140, 3-Chloro-pyridine-2-carboxylic acid [5-(2-oxo-1,2,3,4-tetrahydro-quinolin-6-yl)-pyridin-3-ylmethyl]-amide] | 114 nM | 6650 nM | –
Cc1cccc(C(=O)NCc2cncc(-c3ccc4c(c3)CCC(=O)N4C)c2)n1 [Example 117] | 8 nM | 121 nM | –
CN1C(=O)CCc2cc(-c3cncc(OCCN)c3)ccc21 [Example 42, 6-[5-(2-amino-ethoxy)-pyridin-3-yl]-1-methyl-3,4-dihydro-1H-quinolin-2-one hydrochloride] | 28 nM | 160 nM | –
CN1C(=O)CCc2cc(-c3cncc(C4=CCN(C(=O)OC(C)(C)C)CC4)c3)ccc21 [Example 247, 5-(1-Methyl-2-oxo-1,2,3,4-tetrahydro-quinolin-6-yl)-3′,6′-dihydro-2′H-[3,4′]bipyridinyl-1′-carboxylic acid tert-butyl ester] | 5 nM | 69 nM | –
CN1C(=O)CCc2cc(-c3cncc(CNC(=O)c4cnc(C(F)(F)F)cn4)c3)ccc21 [Example 126] | 7 nM | 642 nM | –
CCC(NS(=O)(=O)CC)c1cncc(-c2ccc3c(c2)CCC(=O)N3C)c1 (racemic) [Example 180, (rac)-Ethanesulfonic acid {1-[5-(1-methyl-2-oxo-1,2,3,4-tetrahydro-quinolin-6-yl)-pyridin-3-yl]-propyl}-amide] | 33 nM | 1890 nM | –
CCOC(=O)N1CC[C@H](Oc2cncc(-c3ccc4c(c3)CCC(=O)N4C)c2)C1 [Example 256, (S)-3-[5-(1-Methyl-2-oxo-1,2,3,4-tetrahydro-quinolin-6-yl)-pyridin-3-yloxy]-pyrrolidine-1-carboxylic acid ethyl ester] | 8 nM | 158 nM | –
CC(C)(C)OC(=O)N1CC[C@H](Oc2cncc(-c3ccc4c(c3)CCC(=O)N4)c2)C1 [Example 214, (S)-3-[5-(2-oxo-1,2,3,4-tetrahydro-quinolin-6-yl)-pyridin-3-yloxy]-pyrrolidine-1-carboxylic acid tert-butyl ester] | 30 nM | 104 nM | –
Cc1noc(C)c1C(=O)NC(C)(C)c1cncc(-c2ccc3c(c2)CCC(=O)N3C)c1 [Example 139] | 18 nM | 455 nM | –
Cc1c(-c2cc3c(cc2F)N(C)C(=O)CC3)cncc1C(C)N (single isomer, unassigned) [Example 253, 6-[5-((R or S)-1-Amino-ethyl)-4-methyl-pyridin-3-yl]-7-fluoro-1-methyl-3,4-dihydro-1H-quinolin-2-one hydrochloride] | 193 nM | 4480 nM | –
CN1C(=O)CCc2cc(-c3cncc(OCCNC(=O)c4ncccc4Cl)c3)c(F)cc21 [Example 244, 3-Chloro-pyridine-2-carboxylic acid {2-[5-(7-fluoro-1-methyl-2-oxo-1,2,3,4-tetrahydro-quinolin-6-yl)-pyridin-3-yloxy]-ethyl}-amide] | 2 nM | 75 nM | –
CCC(=O)N[C@H]1CC[C@H](Oc2cncc(-c3ccc4c(c3)CCC(=O)N4C)c2)CC1 [Example 144] | 4 nM | 460 nM | –

Source: US9260408B2, “Dihydroquinoline-2-one derivatives” (Hoffmann-La Roche Inc., priority 2011, dated 2016)
